Source: patent US20220389061A1, “IMMUNOMODULATORS” (priority 2019, published 2022)
Starred links: 1 amine or outer side, 2 acyl side, 3 side chain; linkers in the order of their positions; H or OH if unused. Positions of bridges follow the written chain, without caps; N, C: chain ends. Non-standard residues stand in square brackets, D forms with d. Residues, ends and D or L forms follow the SMILES beside them. Groups on a side chain read outwards from the residue. *: point of attachment. Trp(1-CH2CO2Me) = COC(=O)Cn1cc(C[C@H](N)C(=O)O)c2ccccc21; Trp(1-CH2COOH) = N[C@@H](Cc1cn(CC(=O)O)c2ccccc12)C(=O)O; Benzofuran(2-CO) = O=C(c1cc2ccccc2o1)*; X8 = NC(=O)c1c[nH]c2c(NC(=S)*)cccc12; X38 = N#Cc1c[nH]c2c(NC(=S)*)cccc12; Hyp = O=C(O)[C@@H]1C[C@@H](O)CN1; X70 = Cc1coc2c(F)cc(NC(=S)*)cc12; X10 = S=C(Nc1ccc(N2CCOCC2)cc1)*; X27 = Cc1cc([N+](=O)[O-])ccc1N*; X94 = S=C(Nc1ccc(N2CCOCC2)nc1)*; X28 = Cc1ccc(Cl)c(NC(=S)*)c1Cl; X30 = FC(F)(F)c1ccc(N*)c(Cl)c1; pNA = O=[N+]([O-])c1ccc(N*)cc1; NH(3-MeOPh) = COc1cccc(N*)c1; NMeNle = CCCC[C@H](NC)C(=O)O; X4 = S=C(Nc1ccc2c(c1)OCCO2)*; NMeA = CN[C@@H](C)C(=O)O; Dab = NCC[C@H](N)C(=O)O; X39 = CCCCOc1ccc(N*)cc1; Dap = NC[C@H](N)C(=O)O; CO = O=C([*:1])[*:2]

Each compound was assayed against T1, PD-1/PD-L1 (Homo sapiens, UniProt Q9NZQ7) (assay: PD-1/PD-L1 Homogenous Time-Resolved Fluorescence (HTRF) binding assay). Details: not given.
T1 construct: TVMV protease site linker (C); made in house; host or cells: HEK293T cells
T1 sequence (Q9NZQ7 18-239): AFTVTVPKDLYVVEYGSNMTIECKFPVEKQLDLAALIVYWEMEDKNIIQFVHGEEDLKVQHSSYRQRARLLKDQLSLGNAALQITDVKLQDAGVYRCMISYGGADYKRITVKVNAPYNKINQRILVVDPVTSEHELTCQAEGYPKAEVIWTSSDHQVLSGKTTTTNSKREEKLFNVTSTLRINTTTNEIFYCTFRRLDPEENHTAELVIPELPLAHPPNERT
Summary of the method: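 Compounds preincubated 15 min with PD-L1-His (10 nM final), then PD-1-Ig (20 nM final) added for 15 min in dPBS with 0.1% BSA, 0.05% Tween-20. Detection by Eu-cryptate anti-Ig (1 nM) and APC anti-His (20 nM) HTRF.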

| SMILES | IC50 [nM] |
| --- | --- |
| CCCC[C@H]1C(=O)N(C)[C@@H](CCCC)C(=O)N[C@@H](CC(C)C)C(=O)N[C@H](C(=O)NCC(N)=O)CSCC(=O)N[C@@H](Cc2ccc(O)cc2)C(=O)N(C)[C@@H](C)C(=O)N[C@@H](CC(N)=O)C(=O)N2CCC[C@H]2C(=O)N[C@@H](CNC(=O)Nc2ccc([N+](=O)[O-])cc2)C(=O)N[C@@H](CC(C)C)C(=O)N2C[C@H](O)C[C@H]2C(=O)N[C@@H](Cc2c[nH]c3ccccc23)C(=O)N[C@@H](CCNC(=O)Nc2ccc([N+](=O)[O-])cc2)C(=O)N[C@@H](Cc2cn(CC(=O)O)c3ccccc23)C(=O)N1C [Example 1130] ({CH2CO}-Y[NMeA]NP[Dap]([CO-pNA])L[Hyp]W[Dab]([CO-pNA])[Trp(1-CH2COOH)][NMeNle][NMeNle]LCG-NH2; thioether N-14) | 2 |
| CCCC[C@H]1C(=O)N(C)[C@@H](CCCC)C(=O)N[C@@H](CC(C)C)C(=O)N[C@H](C(=O)NCC(N)=O)CSCC(=O)N[C@@H](Cc2ccc(O)cc2)C(=O)N(C)[C@@H](C)C(=O)N[C@@H](CC(N)=O)C(=O)N2CCC[C@H]2C(=O)N[C@@H](CNC(=O)Nc2ccc([N+](=O)[O-])cc2C)C(=O)N[C@@H](CC(C)C)C(=O)N2C[C@H](O)C[C@H]2C(=O)N[C@@H](Cc2c[nH]c3ccccc23)C(=O)N[C@@H](CCNC(=O)Nc2ccc([N+](=O)[O-])cc2C)C(=O)N[C@@H](Cc2cn(CC(=O)O)c3ccccc23)C(=O)N1C [Example 1122] ({CH2CO}-Y[NMeA]NP[Dap]([CO-X27])L[Hyp]W[Dab]([CO-X27])[Trp(1-CH2COOH)][NMeNle][NMeNle]LCG-NH2; thioether N-14) | 14 |

Same assay, conditions: PD-L1-His 10 nM pre-incubated with inhibitor, PD-1-Ig 20 nM; read-out: HTRF IC50

| IC50 [nM] | SMILES |
| --- | --- |
| 5.2 | CCCC[C@H]1C(=O)N(C)[C@@H](CCCC)C(=O)N[C@@H](CC(C)C)C(=O)N[C@H](C(=O)NCC(N)=O)CSCC(=O)N[C@@H](Cc2ccc(O)cc2)C(=O)N(C)[C@@H](C)C(=O)N[C@@H](CC(N)=O)C(=O)N2CCC[C@H]2C(=O)N[C@@H](CNC(=S)Nc2cccc3c(C#N)c[nH]c23)C(=O)N[C@@H](CC(C)C)C(=O)N2C[C@H](O)C[C@H]2C(=O)N[C@@H](Cc2c[nH]c3ccccc23)C(=O)N[C@@H](CCN)C(=O)N[C@@H](Cc2cn(CC(=O)O)c3ccccc23)C(=O)N1C [Example 3067] ({CH2CO}-Y[NMeA]NP[Dap](X38)L[Hyp]W[Dab][Trp(1-CH2COOH)][NMeNle][NMeNle]LCG-NH2; thioether N-14) |
| 0.9 | CCCC[C@H]1C(=O)N(C)[C@@H](CCCC)C(=O)N[C@@H](CC(C)C)C(=O)N[C@H](C(=O)NCC(N)=O)CSCC(=O)N[C@@H](Cc2ccc(O)cc2)C(=O)N(C)[C@@H](C)C(=O)N[C@@H](CC(N)=O)C(=O)N2CCC[C@H]2C(=O)N[C@@H](CNC(=S)Nc2ccc(N3CCOCC3)cc2)C(=O)N[C@@H](CC(C)C)C(=O)N2C[C@H](O)C[C@H]2C(=O)N[C@@H](Cc2c[nH]c3ccccc23)C(=O)N[C@@H](CCN)C(=O)N[C@@H](Cc2cn(CC(=O)O)c3ccccc23)C(=O)N1C [Example 1055] ({CH2CO}-Y[NMeA]NP[Dap](X10)L[Hyp]W[Dab][Trp(1-CH2COOH)][NMeNle][NMeNle]LCG-NH2; thioether N-14) |
| 3.6 | CCCC[C@H]1C(=O)N(C)[C@@H](CCCC)C(=O)N[C@@H](CC(C)C)C(=O)N[C@H](C(=O)NCC(N)=O)CSCC(=O)N[C@@H](Cc2ccc(O)cc2)C(=O)N(C)[C@@H](C)C(=O)N[C@@H](CC(N)=O)C(=O)N2CCC[C@H]2C(=O)N[C@@H](CNC(=S)Nc2cccc3c(C(N)=O)c[nH]c23)C(=O)N[C@@H](CC(C)C)C(=O)N2C[C@H](O)C[C@H]2C(=O)N[C@@H](Cc2c[nH]c3ccccc23)C(=O)N[C@@H](CCN)C(=O)N[C@@H](Cc2cn(CC(=O)O)c3ccccc23)C(=O)N1C [Example 3017] ({CH2CO}-Y[NMeA]NP[Dap](X8)L[Hyp]W[Dab][Trp(1-CH2COOH)][NMeNle][NMeNle]LCG-NH2; thioether N-14) |
| 3.1 | CCCC[C@H]1C(=O)N(C)[C@@H](CCCC)C(=O)N[C@@H](CC(C)C)C(=O)N[C@H](C(=O)NCC(N)=O)CSCC(=O)N[C@@H](Cc2ccc(O)cc2)C(=O)N(C)[C@@H](C)C(=O)N[C@@H](CC(N)=O)C(=O)N2CCC[C@H]2C(=O)N[C@@H](CNC(=S)Nc2ccc3c(c2)OCCO3)C(=O)N[C@@H](CC(C)C)C(=O)N2C[C@H](O)C[C@H]2C(=O)N[C@@H](Cc2c[nH]c3ccccc23)C(=O)N[C@@H](CCNC(=S)Nc2ccc3c(c2)OCCO3)C(=O)N[C@@H](Cc2cn(CC(=O)O)c3ccccc23)C(=O)N1C [Example 3069] ({CH2CO}-Y[NMeA]NP[Dap](X4)L[Hyp]W[Dab](X4)[Trp(1-CH2COOH)][NMeNle][NMeNle]LCG-NH2; thioether N-14) |
| 18 | CCCC[C@H]1C(=O)N(C)[C@@H](CCCC)C(=O)N[C@@H](CC(C)C)C(=O)N[C@H](C(=O)NCC(N)=O)CSCC(=O)N[C@@H](Cc2ccc(O)cc2)C(=O)N(C)[C@@H](C)C(=O)N[C@@H](CC(N)=O)C(=O)N2CCC[C@H]2C(=O)N[C@@H](CNC(=O)Nc2ccc(C(F)(F)F)cc2Cl)C(=O)N[C@@H](CC(C)C)C(=O)N2C[C@H](O)C[C@H]2C(=O)N[C@@H](Cc2c[nH]c3ccccc23)C(=O)N[C@@H](CCNC(=O)Nc2ccc(C(F)(F)F)cc2Cl)C(=O)N[C@@H](Cc2cn(CC(=O)O)c3ccccc23)C(=O)N1C [Example 1116] ({CH2CO}-Y[NMeA]NP[Dap]([CO-X30])L[Hyp]W[Dab]([CO-X30])[Trp(1-CH2COOH)][NMeNle][NMeNle]LCG-NH2; thioether N-14) |
| 6 | CCCC[C@H]1C(=O)N(C)[C@@H](CCCC)C(=O)N[C@@H](CC(C)C)C(=O)N[C@H](C(=O)NCC(N)=O)CSCC(=O)N[C@@H](Cc2ccc(O)cc2)C(=O)N(C)[C@@H](C)C(=O)N[C@@H](CC(N)=O)C(=O)N2CCC[C@H]2C(=O)N[C@@H](CNC(=O)Nc2cccc(OC)c2)C(=O)N[C@@H](CC(C)C)C(=O)N2C[C@H](O)C[C@H]2C(=O)N[C@@H](Cc2c[nH]c3ccccc23)C(=O)N[C@@H](CCNC(=O)Nc2cccc(OC)c2)C(=O)N[C@@H](Cc2cn(CC(=O)O)c3ccccc23)C(=O)N1C [Example 1140] ({CH2CO}-Y[NMeA]NP[Dap]([CO-NH(3-MeOPh)])L[Hyp]W[Dab]([CO-NH(3-MeOPh)])[Trp(1-CH2COOH)][NMeNle][NMeNle]LCG-NH2; thioether N-14) |
| 7.9 | CCCC[C@H]1C(=O)N(C)[C@@H](CCCC)C(=O)N[C@@H](CC(C)C)C(=O)N[C@H](C(=O)NCC(N)=O)CSCC(=O)N[C@@H](Cc2ccc(O)cc2)C(=O)N(C)[C@@H](C)C(=O)N[C@@H](CC(N)=O)C(=O)N2CCC[C@H]2C(=O)N[C@@H](CNC(=S)Nc2c(Cl)ccc(C)c2Cl)C(=O)N[C@@H](CC(C)C)C(=O)N2C[C@H](O)C[C@H]2C(=O)N[C@@H](Cc2c[nH]c3ccccc23)C(=O)N[C@@H](CCN)C(=O)N[C@@H](Cc2cn(CC(=O)O)c3ccccc23)C(=O)N1C [Example 1073] ({CH2CO}-Y[NMeA]NP[Dap](X28)L[Hyp]W[Dab][Trp(1-CH2COOH)][NMeNle][NMeNle]LCG-NH2; thioether N-14) |
| 3.3 | CCCC[C@H]1C(=O)N(C)[C@@H](CCCC)C(=O)N[C@@H](CC(C)C)C(=O)N[C@H](C(=O)NCC(N)=O)CSCC(=O)N[C@@H](Cc2ccc(O)cc2)C(=O)N(C)[C@@H](C)C(=O)N[C@@H](CC(N)=O)C(=O)N2CCC[C@H]2C(=O)N[C@@H](CNC(=S)Nc2ccc(N3CCOCC3)nc2)C(=O)N[C@@H](CC(C)C)C(=O)N2C[C@H](O)C[C@H]2C(=O)N[C@@H](Cc2c[nH]c3ccccc23)C(=O)N[C@@H](CCNC(=S)Nc2ccc(N3CCOCC3)nc2)C(=O)N[C@@H](Cc2cn(CC(=O)O)c3ccccc23)C(=O)N1C [Example 1093] ({CH2CO}-Y[NMeA]NP[Dap](X94)L[Hyp]W[Dab](X94)[Trp(1-CH2COOH)][NMeNle][NMeNle]LCG-NH2; thioether N-14) |
| 13 | CCCCOc1ccc(NC(=O)NC[C@@H]2NC(=O)[C@@H]3CCCN3C(=O)[C@H](CC(N)=O)NC(=O)[C@H](C)N(C)C(=O)[C@H](Cc3ccc(O)cc3)NC(=O)CSC[C@@H](C(=O)NCC(N)=O)NC(=O)[C@H](CC(C)C)NC(=O)[C@H](CCCC)N(C)C(=O)[C@H](CCCC)N(C)C(=O)[C@H](Cc3cn(CC(=O)O)c4ccccc34)NC(=O)[C@H](CCN)NC(=O)[C@H](Cc3c[nH]c4ccccc34)NC(=O)[C@@H]3C[C@@H](O)CN3C(=O)[C@H](CC(C)C)NC2=O)cc1 [Example 1139] ({CH2CO}-Y[NMeA]NP[Dap]([CO-X39])L[Hyp]W[Dab][Trp(1-CH2COOH)][NMeNle][NMeNle]LCG-NH2; thioether N-14) |
| 1.3 | CCCC[C@H]1C(=O)N(C)[C@@H](CCCC)C(=O)N[C@@H](CC(C)C)C(=O)N[C@H](C(=O)NCC(N)=O)CSCC(=O)N[C@@H](Cc2ccc(O)cc2)C(=O)N(C)[C@@H](C)C(=O)N[C@@H](CC(N)=O)C(=O)N2CCC[C@H]2C(=O)N[C@@H](CNC(=S)Nc2cc(F)c3occ(C)c3c2)C(=O)N[C@@H](CC(C)C)C(=O)N2C[C@H](O)C[C@H]2C(=O)N[C@@H](Cc2c[nH]c3ccccc23)C(=O)N[C@@H](CCN)C(=O)N[C@@H](Cc2cn(CC(=O)O)c3ccccc23)C(=O)N1C [Example 3054] ({CH2CO}-Y[NMeA]NP[Dap](X70)L[Hyp]W[Dab][Trp(1-CH2COOH)][NMeNle][NMeNle]LCG-NH2; thioether N-14) |
| 5.3 | CCCC[C@H]1C(=O)N(C)[C@@H](CCCC)C(=O)N[C@@H](CC(C)C)C(=O)N[C@H](C(=O)NCC(N)=O)CSCC(=O)N[C@@H](Cc2ccc(O)cc2)C(=O)N(C)[C@@H](C)C(=O)N[C@@H](CC(N)=O)C(=O)N2CCC[C@H]2C(=O)N[C@@H](CNC(=O)c2cc3ccccc3o2)C(=O)N[C@@H](CC(C)C)C(=O)N2C[C@H](O)C[C@H]2C(=O)N[C@@H](Cc2c[nH]c3ccccc23)C(=O)N[C@@H](CCNC(=O)c2cc3ccccc3o2)C(=O)N[C@@H](Cc2cn(CC(=O)OC)c3ccccc23)C(=O)N1C [Example 3012] ({CH2CO}-Y[NMeA]NP[Dap](Benzofuran(2-CO))L[Hyp]W[Dab](Benzofuran(2-CO))[Trp(1-CH2CO2Me)][NMeNle][NMeNle]LCG-NH2; thioether N-14) |
